According to patent US20240041036A1, “BIO PESTICIDAL COMPOSITION CONTAINS NOVEL NONANOATE ESTERS OF SUGARS AND SUGAR ALCOHOLS TO CONTROL LEPIDOPTERA, HEMIPTERA AND THYSANOPTERA INSECTS” (FERTIS INDIA PVT. LTD., priority 2020, published 2024):

How the values were obtained:
Assay in all cases: Field experiment on cotton sucking insects, population count
Format in all cases: in vivo
[1] = tested on: jassids (Amrascabi guttula); settings: for Jassids population count after spray: 0.5 g/L
Description: (§1) A field experiment was conducted with EN2 formulation on cotton sucking insects viz. thrips (Scirtothrips dorsails), aphids (Aphis gossypii), jassids (Amrascabi guttula) and whitefly (Bemisia tabaci), as shown in FIG. 25. Two benchmark insecticides were used as control viz. Thiamethoxam (a broad spectrum insecticide) and Acetamiprid (effective to cotton sucking pest). […] Initially the population of the pests (pre count) was assessed before spraying. […] The number of major sucking pests (2 leaves from top, one from middle and 2 leaves from bottom) in 5 tagged plants/treatment was recorded at 24 h before the spray and after 24 h, 3rd, 6th and 9th day after spray. The data was pooled and average population calculated.

[2] = tested on: thrips (Scirtothrips dorsails); settings: for Thrips population count after spray: 0.5 g/L; for Reduction of thrips population: after 24 h, dose not stated
Description: as §1, with “pest). Three doses of EN 2 formulation (for 1 kg formulation EN 800 g+Arginine 80 g+Silwet20 g+Tergitol 20 g+Water 150 g) was used for this study viz.” for “pest).”

[3] = tested on: whitefly (Bemisia tabaci); settings: 0.5 g/L
Description: as §1, with “pest). Three doses of EN 2 formulation (for 1 kg formulation EN 800 g+Arginine 80 g+Silwet20 g+Tergitol 20 g+Water 150 g) was used for this study viz.” for “pest).”

Row | Structure (SMILES) | Jassids population count after spray ([1]; 3rd day after spray) | Jassids population count after spray ([1]; 6th day after spray) | Jassids population count after spray ([1]; 9th day after spray) | Jassids population count after spray ([1]; 24 hrs after spray) | Thrips population count after spray ([2]; 3rd day after spray) | Thrips population count after spray ([2]; 6th day after spray) | Thrips population count after spray ([2]; 9th day after spray) | Thrips population count after spray ([2]; 24 h after spray) | Reduction of thrips population [2] | Whitefly population count after spray ([3]; 3rd day after spray) | Whitefly population count after spray ([3]; 6th day after spray) | Whitefly population count after spray ([3]; 9th day after spray) | Whitefly population count after spray ([3]; 24 h after spray) | Reduction of Jassids population ([1]; 3rd day after the spray) | Reduction of Jassid population ([1]; 9th day)
1 | C/C(=N\C#N)N(C)Cc1ccc(Cl)nc1 [Acetamiprid] | 3.56 | 2.66 | 3.36 | 14 | 4.06 | 5.66 | 3.6 | 22.7 | 13.7% | 1.66 | 2.4 | 2.13 | 8.66 |  | 
2 | CN1COCN(Cc2cnc(Cl)s2)/C1=N\[N+](=O)[O-] [Thiamethoxam] | 3.26 | 2 | 2.73 | 13.66 | 3.46 | 5.33 | 3.76 | 23.7 | 15.9% | 1.86 | 2.46 | 1.7 | 7 | 11.8% | 40.6%
